Source: patent US11401255B2, “Small molecule activators of Parkin enzyme function” (Mayo Foundation for Medical Education and Research, priority 2016, dated 2022)

molecular target: Parkin (Homo sapiens (Human), UniProt O60260); experiment: Primary HCI assay of EGFP-Parkin translocation to mitochondria; type: cell-based; settings: primary assay screen, Parkin translocation to mitochondria
Protocol: GFP-Parkin is localized throughout the cell in unstressed cells but translocates to mitochondria when the mitochondrial membrane potential is compromised and Parkin is activated. After automated image acquisition of fixed cells, regions of interest of each cell were defined with the analysis software. […] To quantify the relocalization of GFP-Parkin to mitochondria, the ratio of the GFP intensity in the cytoplasm and the nucleus was calculated. Under non-stressed condition, this ratio is about 1. FIG. 1B is a bar graph showing the results of the assay with a Z factor (Z′) of 0.5-0.8, which indicates its robustness and usefulness as a screening assay. Validation of the assay has been performed by using PINK1 siRNA.
FIGS. 2A-2C show a primary HCI assay with CCCP titration. FIG. 2A is a graphic description of the primary HCI assay of EGFP-Parkin translocation. HeLa cells stably expressing GFP-Parkin were seeded with 1350 cells per well in 384-well plates (25 μL per well). Cells were allowed to attach overnight before drug was added 2× concentrated in a volume of 25 μL in triplicates. After 2 h, 50 μL of a 2× low-dose CCCP (yielding a final concentration of 3.5 μM CCCP) was added to all wells that contained test compounds and for the negative control. For positive control wells, CCCP was added in a final concentration of 10 μM. After 2 h incubation with CCCP, cells were fixed and labeled with Hoechst for at least 1 h before cells were imaged. […] Values were being normalized to negative and positive control values and plotted as % activity. Z′ was calculated for quality control. Positive controls were indicated in green, negative control wells in red. Drugs that lead to more than 50% activity are considered positive (blue).
Functional testing of compounds was performed using an established primary HCI assay for Parkin translocation, which correlates well with enzymatic activation (Fiesel et al., J. Cell Science (2014) 127:3488-3504; Fiesel et al., Human Mutation (2015) 36:774-786). In brief, 1400 HeLa cells stably expressing EGFP-Parkin were seeded into optical 384-well plates (Greiner BioOne) in 25 μL media and allowed to adhere for 40 h. Compounds 1, 2, 3, 4, and 31 were added to the plate as 2× concentrated stocks. Control wells were treated with equal volume of DMSO in media. After 2 h, unless otherwise stated, CCCP was added as 2× concentrated stock with a final assay concentration of 10 μM for PC wells and 3.5 μM for test and NC wells. This low dose of CCCP was experimentally determined by a dose response curve of CCCP to result in no Parkin translocation (FIG. 13). After another 2 h, cells were fixed in 4% paraformaldehyde for 10 min and stained with Hoechst 33342 (1:5000, Invitrogen) before plates were imaged and analyzed.
Image acquisition was performed on a BD Pathway 855 with the Attovision V1.6 software (BD Biosciences). Wells were imaged with a 20× objective using a 2×2 montage with laser autofocus. EGFP exposure time was 0.0175 sec, Hoechst 0.0015 sec. Raw images were not processed and directly analyzed using a build-in ‘RING—2 output’ algorithm. Values were exported and normalized using JMP 11 software and transferred to GraphPad Prism 7 for quality control, graphing and curve fitting for DRCs with a variable slope using four parameters. […] Values were normalized to both PC and NC values from 24 wells each per plate and the Z′ score was calculated. Plates with Z′<0.5 were repeated.

Parkin, sequence (O60260 whole entry): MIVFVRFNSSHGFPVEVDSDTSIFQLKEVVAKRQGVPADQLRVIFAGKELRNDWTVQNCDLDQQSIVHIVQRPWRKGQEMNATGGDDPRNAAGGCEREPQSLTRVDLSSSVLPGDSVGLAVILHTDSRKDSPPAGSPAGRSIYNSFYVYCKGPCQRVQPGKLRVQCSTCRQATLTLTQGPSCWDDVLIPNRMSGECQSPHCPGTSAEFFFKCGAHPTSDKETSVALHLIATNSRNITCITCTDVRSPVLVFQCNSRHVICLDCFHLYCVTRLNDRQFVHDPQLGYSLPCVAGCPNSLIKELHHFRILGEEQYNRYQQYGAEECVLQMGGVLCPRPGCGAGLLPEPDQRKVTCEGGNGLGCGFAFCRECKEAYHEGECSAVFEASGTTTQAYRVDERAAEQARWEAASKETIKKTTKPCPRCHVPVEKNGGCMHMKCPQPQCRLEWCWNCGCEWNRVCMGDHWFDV

First: O=C(Cn1ccnc1)Nc1ccc(-c2ccccc2)c(Cl)c1 [Compound 6]
Second: Cc1cc(NC(=O)Cn2ccnc2)ccc1-c1ccccc1 [Compound 30]
The EC50 of the first is 2.5-fold lower: 2 µM for the first, 5 µM for the second. The first is the more potent here.

O=C(Cn1ccnc1)Nc1ccc(OCC2CCCCC2)cc1 [Compound 8] and O=C(Cn1ccnc1)Nc1ccc(COC2CCCC2)cc1 [Compound 15] are the same in EC50: 5 µM for the first, 5 µM for the second.

O=C(Cn1ccnc1)Nc1ccc(CN2CCc3ccccc32)cc1 [Compound 9] and O=C(Cn1ccnc1)Nc1ccc(Oc2ccccc2)cc1 [Compound 14] are the same in EC50: 5 µM for the first, 5 µM for the second.

O=C(Cn1ccnc1)Nc1ccc(C23CC4CC(CC(C4)C2)C3)cc1 [Compound 10] and O=C(Cn1ccnc1)Nc1ccc(SC2CCCC2)cc1 [Compound 18] are the same in EC50: 5 µM for the first, 5 µM for the second.

Compared with O=C(Cn1ccnc1-c1ccncc1)Nc1ccc(-c2ccccc2)cc1 [Compound 11], O=C(Cn1ccnc1-c1ccccc1)Nc1ccc(-c2ccccc2)cc1 [Compound 29] is 2.5-fold lower in EC50: 5 µM for the first, 2 µM for the second. The second is the more potent here.

O=C(Cn1ccnc1)Nc1ccc(-c2ccccc2)c(C(F)(F)F)c1 [Compound 12] and O=C(Cn1ccnc1)Nc1nc(-c2ccccc2)co1 [Compound 13] are the same in EC50: 5 µM for the first, 5 µM for the second.

N#Cc1ccc(Oc2ccc(NC(=O)Cn3ccnc3)cc2)cc1 [Compound 16] and CC(C)Cc1ccc(NC(=O)Cn2ccnc2)cc1 [Compound 17] are the same in EC50: 5 µM for the first, 5 µM for the second.

Cc1nccn1CC(=O)Nc1ccc(-c2ccccc2)cc1 [Compound 19] and O=C(Cc1ccncc1)Nc1ccc(-c2ccccc2)cc1 [Compound 20] are the same in EC50: 10 µM for the first, 10 µM for the second.

O=C(Nc1ccc(-c2ccccc2)cc1)c1cn2c(n1)CCCC2 [Compound 21] and O=C(Cn1cnc2c1CCCC2)Nc1ccc(-c2ccccc2)cn1 [Compound 22] are within 1.5-fold of each other in EC50: 0.238 µM for the first, 0.246 µM for the second.

O=C(Cn1cnc2c1CCCC2)Nc1ccc(-c2ccccn2)cc1 [Compound 23] and Cc1nccc(-c2ccc(NC(=O)Cn3cnc4c3CCCC4)cc2)n1 [Compound 24] are within 1.5-fold of each other in EC50: 0.272 µM for the first, 0.19 µM for the second.

First: O=C(Cn1cnc2c1CCCC2)Nc1ccc(-c2ccccc2F)nn1 [Compound 25]
Second: O=C(Cn1cnc2c1CCCC2)Nc1cnc(-c2ccccc2)nc1 [Compound 26]
The EC50 of the first is 2.5-fold lower: 0.382 µM for the first, 0.938 µM for the second. The first is the more potent here.

Cc1ccnc(-c2ccc(NC(=O)Cn3cnc4c3CCCC4)cc2)n1 [Compound 27] and Cc1cc(NC(=O)Cn2cnc3c2CCCC3)ccc1-c1ccncc1 [Compound 28] are within 1.5-fold of each other in EC50: 0.19 µM for the first, 0.134 µM for the second.

Compared with Cc1nc2c(c(N3CCCN(Cc4csc(C)n4)CC3)n1)CCCC2 [Compound 35], Cc1nc2c(c(N3CCCN(Cc4cccs4)CC3)n1)CCCC2 [Compound 43] is 36-fold lower in EC50: 10 µM for the first, 0.28 µM for the second.

First: COc1ccc(CN2CCCN(c3ncnc4c3CN(C)CC4)CC2)cc1 [Compound 36]
Second: Cc1nc2c(c(N3CCCN(Cc4ccc(Cl)cc4)CC3)n1)CCCC2 [Compound 45]
The EC50 of the first is higher: over 10 µM for the first, 0.366 µM for the second.

First: Cc1nc2c(c(N3CCN(C(=O)c4ccccc4)CC3)n1)CCCC2 [Compound 40]
Second: Cc1nc2c(c(N3CCN(Cc4ccccc4)C(C)(C)C3)n1)CCCC2 [Compound 44]
The EC50 of the first is higher: over 10 µM for the first, 0.438 µM for the second.

Going from Cc1nc2c(c(N3CCCN(Cc4noc(C5CC5)n4)CC3)n1)CCCC2 [Compound 42] to c1ccc(CN2CCCN(c3ncnc4ncccc34)CC2)cc1 [Compound 46], the EC50 falls from 0.707 µM to 0.203 µM (3.5-fold).

test system: TA 1537; experiment: Ames Test, strain TA 1537; settings: TA 1537, positive control 7.5 μg/plate (row printed 50; shifted)
Text: (§1) The test used amino acid-dependent strains of Salmonella typhimurium and Escherichia coli to detect point mutations which involved substitution, addition or deletion of one or a few DNA base pairs. Point mutations were introduced in the histidine (Salmonella typhimurium) or the tryptophan (Escherichia coli) operon, making the tester strains incapable of producing these amino acids. The test detected mutations that revert the mutations present in the bacteria, restoring the functional capability to synthesize histidine or tryptophan. The revertant bacteria were detected by the ability to grow in the absence of the amino acid required by the parent test strain. A mutagenic potential of a tested compound was assessed by exposing these bacterial strains to different concentrations of the compounds and estimating number of revertant colonies grown in the absence (trace quantities) of the amino acid.
(§2) DMSO was used as the negative control.
(§3) For each experiment, tester strain cultures were grown overnight in Oxoid nutrient broth #2 at 37° C. with shaking at 235 rpm to a density of 1-2×10^9 colony forming units/mL (OD540˜2).
(§4) The tester strain (10 μL of night culture) was mixed with the test agent (10 µL of the DMSO stock) and GM liquid medium (30 μL). The obtained mixture was incubated at room temperature for 5 min in a sterile 1.5 mL tube. Then, to the tube was added 200 μL of molten top agar stored at 44° C. to prevent solidifying. After mixing with a pipette, the mixture was poured onto the surface of a GM agar plate (2.0 mL of GM agar per plate). After solidifying the top agar, the plate was inverted and incubated at 37° C. for 48 hours. Then, results were expressed as number of revertant colonies per plate.

With Nc1c2ccccc2nc2ccccc12 [9-aminoacridine, reference compound] the “Mean ± SD” value was 1119 ± 21.21 revertant colonies per plate.

molecular target: CYP 2C9 (Homo sapiens (Human), UniProt P11712); experiment: P450-Glo CYP450 inhibition, CYP 2C9; type: in vitro ADME; settings: human, P450-Glo Assay System (Promega), CYP 2C9 membranes, CYP 2C9, reference inhibitor 120 uM
Protocol: CYP450 inhibition profiling provides valuable information regarding any possible drug-drug interactions for a test compound.
All experiments were performed using P450-Glo™ Assay Systems (Promega) in accordance with the manufacturer's protocols. The P450-Glo™ Assays provide a luminescent readout-based method for measuring cytochrome P450 activity. A conventional cytochrome P450 reaction was performed by incubating the cytochrome P450 and a luminogenic cytochrome P450 substrate. The substrates in the P450-Glo™ assays are derivatives of beetle luciferin. The derivatives themselves are not substrates for luciferase but are converted by cytochrome P450s to luciferin, which in turn reacts with luciferase to produce light. The amount of light produced was directly proportional to cytochrome P450 activity. All test points were performed in quadruplicates. Control membranes (without CYPs) represented the Negative control (baseline).
The following reference compounds were used to assess CYP inhibition: […]

CYP 2C9, sequence (P11712 whole entry): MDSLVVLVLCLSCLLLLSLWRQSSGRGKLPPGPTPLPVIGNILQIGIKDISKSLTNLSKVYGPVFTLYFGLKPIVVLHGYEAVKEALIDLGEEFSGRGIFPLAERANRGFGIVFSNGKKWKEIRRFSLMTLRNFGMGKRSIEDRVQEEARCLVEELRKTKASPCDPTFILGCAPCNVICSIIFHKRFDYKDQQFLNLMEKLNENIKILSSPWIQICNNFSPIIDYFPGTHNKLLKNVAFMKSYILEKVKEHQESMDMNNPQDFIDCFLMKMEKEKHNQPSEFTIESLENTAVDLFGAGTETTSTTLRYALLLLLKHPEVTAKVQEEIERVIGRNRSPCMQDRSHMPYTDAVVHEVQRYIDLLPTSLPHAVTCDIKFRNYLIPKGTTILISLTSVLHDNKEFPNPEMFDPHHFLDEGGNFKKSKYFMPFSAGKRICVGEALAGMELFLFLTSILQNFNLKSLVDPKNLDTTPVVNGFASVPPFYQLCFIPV

OC(Cn1cncn1)(Cn1cncn1)c1ccc(F)cc1F [fluconazole, reference compound] was tested, and the inhibition at 120 µM was 84.5%.

test system: TA 98; experiment: Ames Test, strain TA 98; settings: TA 98, positive control 0.1 μg/plate
Text: as §1, §2, §3, §4

O=[N+]([O-])c1ccc2c(c1)Cc1ccccc1-2 [2-nitrofluorene, reference compound] was tested, and the “Mean ± SD” value was 7 ± 1.41 revertant colonies per plate.
